According to patent US11510886B2, “Metformin amino acid compounds and methods of using the same” (Laboratorios Silancs S.A. DE C.V., priority 2016, dated 2022):
Counter-ions that a name gives are not always drawn.

Experiments:
in vivo = settings: female, Sprague Dawley, rat, plasma, po, 250 mg/kg
[1] = test system: AMPK and GLUT4 in NIH-3T3-L1 adipocytes; assay: AMPK activation and GLUT4 in plasma membrane of L1 adipocytes (Western blot); type: cell-based, Mice; settings: 10 mM, 3 hours
Procedure: . 2 days in culture media supplemented with insulin 1 μg/mL; and 6 days in culture media. […]. Similar quantities of each extract were analyzed using Western blot (SDS-PAGE and electrotransfer), with the indicated antibodies and chemiluminescence (ECL Prime, GE Healthcare). FIGS. 70B-C show pictures of L1 adipocyte cultures treated as in FIG. 70A and exposed to fractioning for protein extraction from plasma membrane by a procedure described above (Nishiumi & Ashida. Biosci Biotechnol Biochem. 2007; 71:2343-6). Briefly, cells were washed with PBS and collected in solution A (Tris 50 mM, pH 8.0, DTT 0.5 mM, 0.1% Nonidet P-40, PMSF 1 mM, leupeptin 5 μg/mL, aprotinin 5 μg/mL, NaF 10 mM, Na3VO4 1 mM) and lysed manually with a Dounce homogenizer (20 pestle movements). Homogenized solutions were centrifuged (1000×g, 10 minutes, 4° C.), cell precipitates were dispersed in solution A, without Nonidet P-40, stored in ice for 10 minutes, occasionally stirred, and centrifuged again (1000×g, 10 minutes, 4° C.). […]. Supernatants were stored at −80° C. until analysis. Equivalent quantities of demembrane extracts were analyzed by Western blot with anti-GLUT4 (Abcam) antibodies. […]

L1 adipocytes = assay: Inflammation markers in L1 adipocytes treated with palmitate (RT-qPCR); type: cell-based, Mice; settings: palmitate 500 μM, 10 mM, 24 hours (FIG. 79)
Procedure: FIG. 79. […] Differentiated L1 adipocytes (cells) were treated for 24 hours with palmitate (500 μM), either in the presence or in the absence of SLN1 or SLN10 (10 mM). Subsequently, the relative expression of inflammation markers was analyzed by RT and qPCR, using HPRT-1 as a normalizer and as a reference for expression levels of non-treated cells (MCP-1 and IL-12), and for those treated only with palmitate (proIL-1β, TNFα, iNOS, IL-6). Briefly, once finished, culture media treatments were collected for subsequent analysis, cells were washed with PBS, and RNA was extracted (illustra RNAspin Mini, GE Healthcare) and retro-transcribed (High Capacity cDNA Reverse Transcription Kit, Life Technologies); then, the genes under study were analyzed by using a quantitative PCR with specific probes (TaqMan® Gene Expression Assays, Life Technologies), estimating the relative quantification (RQ) with the ΔΔ Ct method.
Palmitate is a saturated fatty acid that simulates an experimental obese state. It can be used as a pro-inflammatory stimulant for cytokines such as proIL-1β, TNFα, INOS, IL-6, MCP-1, and IL-12. Adipocytes cultured in the absence or presence of palmitate were treated with SLN1 or SLN10, and the expression of inflammation markers was determined by quantitative RT-PCR (FIG. 79).

GPBP = target: T1, GPBP (Homo sapiens, UniProt Q9Y5P4); type: binding
T1 sequence (Q9Y5P4 1-624): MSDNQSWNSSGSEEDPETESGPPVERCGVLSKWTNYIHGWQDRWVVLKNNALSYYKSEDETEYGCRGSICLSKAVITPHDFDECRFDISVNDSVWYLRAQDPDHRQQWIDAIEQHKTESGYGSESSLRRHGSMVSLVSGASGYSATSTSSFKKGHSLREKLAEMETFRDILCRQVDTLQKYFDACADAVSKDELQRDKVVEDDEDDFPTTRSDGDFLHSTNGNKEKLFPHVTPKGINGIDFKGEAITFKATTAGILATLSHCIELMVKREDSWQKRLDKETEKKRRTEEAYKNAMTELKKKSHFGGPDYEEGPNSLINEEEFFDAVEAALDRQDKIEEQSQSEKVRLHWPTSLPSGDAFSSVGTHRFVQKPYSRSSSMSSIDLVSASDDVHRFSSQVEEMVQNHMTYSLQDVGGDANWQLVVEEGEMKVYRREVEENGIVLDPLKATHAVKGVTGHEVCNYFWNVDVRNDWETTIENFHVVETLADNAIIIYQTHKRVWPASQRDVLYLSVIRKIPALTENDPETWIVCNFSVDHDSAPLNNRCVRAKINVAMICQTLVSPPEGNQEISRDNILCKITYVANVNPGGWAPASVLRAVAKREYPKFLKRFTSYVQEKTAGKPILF

Question: For `CN(C)C(=N)N=C(N)N` [Metformin hydrochloride, metformin hydrochloride, reference compound], which AUC(0-t) (in vivo) is on record?
Answer: Its AUC(0-t) is 82000 ng·h/mL.

Question: What about the Cmax (in vivo) of the same compound?
Answer: Its Cmax is 16300 ng/mL.

Question: And the Tmax (in vivo)?
Answer: The Tmax was 30 min.

Question: What about the concentration at 0.5 h (in vivo) of the same compound?
Answer: The concentration at 0.5 h was 16300 ± 5100 ng/mL.

Question: What about the concentration at 1 h (in vivo) of the same compound?
Answer: The concentration at 1 h was 14800 ± 5070 ng/mL.

Question: And the concentration at 2 h (in vivo)?
Answer: The concentration at 2 h was 11900 ± 3240 ng/mL.

Question: And the concentration at 4 h (in vivo)?
Answer: Its concentration at 4 h is 6830 ± 1650 ng/mL.

Question: And the concentration at 8 h (in vivo)?
Answer: The concentration at 8 h was 3140 ± 1050 ng/mL.

Question: What about the concentration at 24 h (in vivo) of the same compound?
Answer: Its concentration at 24 h is 190 ± 100 ng/mL.

Question: For metformin lysinate, which AMPK activation [1] is on record?
Answer: The AMPK activation was “activates AMPK”.

Question: What about the “GLUT4 accumulation in the plasma membrane” value [1] of the same compound?
Answer: The value was “induces a GLUT4 accumulation in the plasma membrane”.

Question: What about the “attenuation of inflammatory response of adipocytes stimulated with palmitate” value (L1 adipocytes) of the same compound?
Answer: Its value is “much more effective”.

Question: What about the “GPBP fluorescence emission at 370 nm (F370)” value (GPBP) of the same compound?
Answer: Its value is “steady reduction (extinction)”.

Question: And the “Ksv (Stern-Volmer constant)” value (GPBP)?
Answer: The value was 108800 M⁻¹.

Question: And the “n (number of SLN10 molecules bound to GPBP)” value (GPBP)?
Answer: The value was 0.7.
